Experimental data: ChEMBL document CHEMBL4007467, “Effects of 6-paradol, an unsaturated ketone from gingers, on cytochrome P450-mediated drug metabolism” (Bioorg Med Chem Lett, 2017)

What was measured:
Format in all cases: ADME
Design in all cases: scale not given: the % may be the effect or the level left
CYP2B6 = target: T1, CYP2B6 (Homo sapiens, UniProt P20813); test: Inhibition of CYP2B6 in human liver microsomes assessed as enzyme-mediated metabolite formation at 3 uM using bupropion as substrate incubated for 5 mins followed by NADPH addition measured after 30 mins by LC-MS/MS analysis relative to control; conditions: probe bupropion, read-out: Activity
T1 sequence (P20813 whole entry): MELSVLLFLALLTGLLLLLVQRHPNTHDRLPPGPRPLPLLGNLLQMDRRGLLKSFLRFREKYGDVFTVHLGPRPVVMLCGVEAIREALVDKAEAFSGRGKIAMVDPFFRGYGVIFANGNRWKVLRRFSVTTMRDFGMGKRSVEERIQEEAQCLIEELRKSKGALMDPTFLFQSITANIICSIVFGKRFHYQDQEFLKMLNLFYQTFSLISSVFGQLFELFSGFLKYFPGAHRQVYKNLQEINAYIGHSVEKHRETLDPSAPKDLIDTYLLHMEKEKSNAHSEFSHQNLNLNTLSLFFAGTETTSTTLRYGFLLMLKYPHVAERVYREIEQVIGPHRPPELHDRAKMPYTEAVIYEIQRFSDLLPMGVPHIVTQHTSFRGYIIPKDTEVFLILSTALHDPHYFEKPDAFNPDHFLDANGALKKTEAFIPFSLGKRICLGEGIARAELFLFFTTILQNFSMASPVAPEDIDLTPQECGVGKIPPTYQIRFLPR

CYP3A4 [1] = target: T2, CYP3A4 (Homo sapiens, UniProt P08684); test: Inhibition of CYP3A4 in human liver microsomes assessed as enzyme-mediated metabolite formation at 0.1 uM using testosterone as substrate incubated for 5 mins followed by NADPH addition measured after 30 mins by LC-MS/MS analysis relative to control; conditions: probe testosterone, read-out: Activity
T2 sequence (P08684 whole entry): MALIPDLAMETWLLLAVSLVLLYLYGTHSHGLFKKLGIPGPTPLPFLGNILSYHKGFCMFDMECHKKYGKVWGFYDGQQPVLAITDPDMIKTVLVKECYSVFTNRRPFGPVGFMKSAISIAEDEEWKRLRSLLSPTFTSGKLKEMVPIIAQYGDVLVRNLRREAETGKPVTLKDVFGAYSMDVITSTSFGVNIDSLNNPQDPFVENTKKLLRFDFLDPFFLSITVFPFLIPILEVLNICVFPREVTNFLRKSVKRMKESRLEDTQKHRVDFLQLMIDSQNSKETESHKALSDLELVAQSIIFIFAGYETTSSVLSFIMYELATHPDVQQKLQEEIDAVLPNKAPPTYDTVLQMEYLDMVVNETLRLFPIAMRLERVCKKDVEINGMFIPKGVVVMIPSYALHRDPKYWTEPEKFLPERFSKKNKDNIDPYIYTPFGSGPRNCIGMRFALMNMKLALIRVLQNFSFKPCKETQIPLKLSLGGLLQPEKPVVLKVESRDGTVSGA

CYP2A6 = target: T3, CYP2A6 (Homo sapiens, UniProt P11509); test: Inhibition of CYP2A6 in human liver microsomes assessed as enzyme-mediated metabolite formation at 1 uM using coumarin as substrate preincubated for 20 mins followed by substrate addition measured after 30 mins in presence of NADPH by LC-MS/MS analysis relative to control; conditions: probe coumarin, read-out: Activity
T3 sequence (P11509 whole entry): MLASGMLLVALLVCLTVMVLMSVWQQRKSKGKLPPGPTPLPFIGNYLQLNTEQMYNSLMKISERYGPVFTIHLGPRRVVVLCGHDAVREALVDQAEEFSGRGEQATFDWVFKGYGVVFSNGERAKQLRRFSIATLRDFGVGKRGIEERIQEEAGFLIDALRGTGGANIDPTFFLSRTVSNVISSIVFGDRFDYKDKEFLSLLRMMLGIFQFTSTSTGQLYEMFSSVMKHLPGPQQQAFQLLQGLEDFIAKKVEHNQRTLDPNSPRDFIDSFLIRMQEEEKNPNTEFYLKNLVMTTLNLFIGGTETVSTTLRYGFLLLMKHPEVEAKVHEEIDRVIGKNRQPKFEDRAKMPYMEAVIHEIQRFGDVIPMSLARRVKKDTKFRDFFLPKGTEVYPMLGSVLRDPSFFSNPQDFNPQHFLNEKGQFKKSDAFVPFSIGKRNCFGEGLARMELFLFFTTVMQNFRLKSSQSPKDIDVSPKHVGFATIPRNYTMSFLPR

CYP2C19 = CYP2C19 (Homo sapiens, UniProt P33261); test: Inhibition of CYP2C19 in human liver microsomes assessed as enzyme-mediated metabolite formation at 1 uM using (S)-mephenytoin as substrate incubated for 5 mins followed by NADPH addition measured after 30 mins by LC-MS/MS analysis relative to control; conditions: probe (S)-mephenytoin, read-out: Activity
Chain of CYP2C19 (P33261 whole entry): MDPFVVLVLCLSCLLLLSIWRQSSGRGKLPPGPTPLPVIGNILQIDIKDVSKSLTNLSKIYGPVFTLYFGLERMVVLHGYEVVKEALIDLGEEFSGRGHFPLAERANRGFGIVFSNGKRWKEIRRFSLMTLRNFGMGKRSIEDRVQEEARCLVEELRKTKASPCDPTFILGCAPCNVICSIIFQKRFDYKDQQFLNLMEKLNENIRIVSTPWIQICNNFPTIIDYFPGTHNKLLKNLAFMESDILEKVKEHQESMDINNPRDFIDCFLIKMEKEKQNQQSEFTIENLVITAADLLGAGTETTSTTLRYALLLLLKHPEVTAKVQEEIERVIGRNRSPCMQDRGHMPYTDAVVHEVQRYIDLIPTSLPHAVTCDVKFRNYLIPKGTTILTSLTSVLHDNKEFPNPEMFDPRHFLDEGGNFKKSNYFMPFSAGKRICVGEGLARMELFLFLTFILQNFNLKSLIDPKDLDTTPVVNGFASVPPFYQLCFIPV

CYP2C8 = target: T4, CYP2C8 (Homo sapiens, UniProt P10632); test: Inhibition of CYP2C8 in human liver microsomes assessed as enzyme-mediated metabolite formation at 0.3 uM using paclitaxel as substrate incubated for 5 mins followed by NADPH addition measured after 30 mins by LC-MS/MS analysis relative to control; conditions: probe paclitaxel, read-out: Activity
T4 sequence (P10632 whole entry): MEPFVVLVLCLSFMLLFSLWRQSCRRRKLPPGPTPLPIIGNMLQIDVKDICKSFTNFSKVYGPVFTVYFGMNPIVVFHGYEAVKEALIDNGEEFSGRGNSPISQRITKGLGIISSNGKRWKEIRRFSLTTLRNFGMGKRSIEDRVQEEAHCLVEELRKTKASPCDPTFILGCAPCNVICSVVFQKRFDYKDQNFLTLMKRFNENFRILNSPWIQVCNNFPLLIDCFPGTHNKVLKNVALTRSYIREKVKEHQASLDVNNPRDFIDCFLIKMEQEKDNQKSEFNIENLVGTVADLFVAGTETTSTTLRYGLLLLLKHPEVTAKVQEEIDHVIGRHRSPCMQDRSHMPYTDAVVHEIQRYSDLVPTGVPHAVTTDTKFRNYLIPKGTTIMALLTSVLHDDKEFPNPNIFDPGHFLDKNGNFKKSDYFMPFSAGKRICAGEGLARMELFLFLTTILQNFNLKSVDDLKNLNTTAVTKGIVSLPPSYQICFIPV

CYP3A4 [2] = target: T2, CYP3A4; test: Inhibition of CYP3A4 in human liver microsomes assessed as enzyme-mediated metabolite formation at 10 uM using testosterone as substrate incubated for 5 mins followed by NADPH addition measured after 30 mins by LC-MS/MS analysis relative to control; conditions: probe testosterone, read-out: Activity

CCCCCCCC(=O)CCc1ccc(O)c(OC)c1
activity at 0.5 h, 3 µM (CYP2B6): 65.7% | activity at 0.5 h, 0.1 µM (CYP3A4 [1]): 100% | activity at 0.5 h, 1 µM (CYP2A6): 102% | activity at 0.5 h, 1 µM (CYP2C19): 88.4% | activity at 0.5 h, 0.3 µM (CYP2C8): 82% | activity at 0.5 h, 10 µM (CYP3A4 [2]): 58.6%
